The values that follow come from PubChem BioAssay (NCI).

Test systems include HT29 colon; SNB-75 CNS; A549 NSCLC; MALME-3M melanoma; EKVX NSCLC; NCI-H460 lung; COLO 205 colon; UACC-257 melanoma; CAKI-1 renal; SF-295 CNS.
Test in all cases: NCI-60 cell line screen, 48 h

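These data come from cells grown in 96-well plates and exposed to compound for 48 hours at five concentrations. TGI denotes the concentration required for complete inhibition of growth.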 Some results are limits rather than exact numbers.

In the case of `COc1cc2cc(C(=O)N3CC(CCl)c4c3cc(O)c3ccccc43)[nH]c2c(OC)c1OC` (stereo unspecified), the TGI is more than 50 µM in the assay on HT29 colon; less than 0.005 µM with SNB-75 CNS; more than 50 µM in the assay on A549 NSCLC; less than 0.005 µM with MALME-3M melanoma; 0.597 µM in the assay with EKVX NSCLC; less than 0.005 µM in the assay on NCI-H460 lung.

With `CC(=O)OC1[C@@H](OC(C)=O)CN(OCc2ccccc2)C[C@H]1OC(C)=O` (stereo partly specified), the TGI in the assay with COLO 205 colon, with HT29 colon, with UACC-257 melanoma, in the assay on SNB-75 CNS, with CAKI-1 renal and in the assay with A549 NSCLC was more than 100 µM each time. Besides, the TGI in the assay with EKVX NSCLC, in the assay with NCI-H460 lung and in the assay with SF-295 CNS was more than 100 µM in each case.

For the molecule `COc1cc2cc3c4c(cc(OC)c(OC)c4c2cc1OC)CCN3C(=O)CCC(=O)O`, the TGI with COLO 205 colon, with HT29 colon, in the assay with UACC-257 melanoma, in the assay on CAKI-1 renal, in the assay with A549 NSCLC and in the assay on MALME-3M melanoma was more than 100 µM in each case. The TGI in the assay with EKVX NSCLC and in the assay on SF-295 CNS was more than 100 µM each time.

On to `C=CCN1C[C@@H](C)N([C@@H](c2ccc(C(=O)N(CC)CC)cc2)c2cccc(OC)c2)C[C@@H]1C`, for which the TGI with COLO 205 colon, in the assay on HT29 colon, in the assay with CAKI-1 renal, with A549 NSCLC, with MALME-3M melanoma and in the assay with EKVX NSCLC was more than 100 µM each time. Further, the TGI in the assay on SF-295 CNS is more than 100 µM.

Regarding `CCN(CC)CC(=O)Nc1ccc2c(c1)C(=O)c1ccc(NC(=O)CN(CC)CC)cc1C2=O`, the TGI with COLO 205 colon is 54.1 µM; with HT29 colon, more than 100 µM; in the assay on UACC-257 melanoma, 97.4 µM; with SNB-75 CNS, 89.6 µM; with CAKI-1 renal, more than 100 µM; in the assay with A549 NSCLC it was more than 100 µM. Further, the TGI was more than 100 µM in the assay on EKVX NSCLC, 31.5 µM in the assay with NCI-H460 lung and more than 100 µM with SF-295 CNS.

As for `S=C(c1c[nH]c2ccccc12)N1CCCCC1`, the TGI with COLO 205 colon, in the assay on HT29 colon, in the assay on UACC-257 melanoma, in the assay with CAKI-1 renal, in the assay on MALME-3M melanoma and in the assay with EKVX NSCLC was more than 100 µM each time. For the same molecule, the TGI in the assay on NCI-H460 lung and in the assay on SF-295 CNS was more than 100 µM throughout.

For `O=c1[nH]c(=O)n2n1C1C=CC2CC1`, the TGI with COLO 205 colon, in the assay on HT29 colon, with UACC-257 melanoma, in the assay on SNB-75 CNS, in the assay on CAKI-1 renal and in the assay on A549 NSCLC was more than 100 µM each time. Further, the TGI in the assay with EKVX NSCLC, in the assay on NCI-H460 lung and in the assay with SF-295 CNS was more than 100 µM each time.

As for `CN(C)Cc1cc(C(=O)/C=C/c2ccc(F)cc2)cc(CN(C)C)c1O`, the TGI with HT29 colon is more than 100 µM; with UACC-257 melanoma, 31 µM; in the assay on SNB-75 CNS, 87.2 µM; in the assay on CAKI-1 renal it was 67.3 µM; with A549 NSCLC, more than 100 µM; in the assay on MALME-3M melanoma, 36.5 µM. Also, the TGI is more than 100 µM in the assay on EKVX NSCLC, 22.3 µM with NCI-H460 lung and 31.6 µM in the assay on SF-295 CNS.

`COc1ccc(/C=C2\CN(C)CC3C2=NN(c2ccccc2)C3c2ccc(OC)cc2)cc1` (stereo unspecified): the TGI in the assay on COLO 205 colon, in the assay on HT29 colon, in the assay with UACC-257 melanoma, in the assay with CAKI-1 renal, with A549 NSCLC and in the assay with MALME-3M melanoma was more than 100 µM in each case. The TGI with EKVX NSCLC, with NCI-H460 lung and in the assay with SF-295 CNS was more than 100 µM each time.

Regarding `COc1ccc(-c2nc3c(nc2-c2ccc(OC)cc2)N(C)S(=O)(=O)N=C3N)cc1`, the TGI in the assay with COLO 205 colon is 32.5 µM; with HT29 colon, 74.9 µM; with SNB-75 CNS, more than 100 µM; with CAKI-1 renal, 94.9 µM; with A549 NSCLC it was more than 100 µM; in the assay with MALME-3M melanoma, 58.8 µM. Besides, the TGI in the assay on NCI-H460 lung is more than 100 µM; in the assay on SF-295 CNS, 84.3 µM.

Turning to `O=C1C=C2CC[C@H]3[C@@H]4CC[C@H](Oc5c6ccccc6nc6ccccc56)[C@H]4CC[C@@H]3[C@H]2CC1`, the TGI with COLO 205 colon was more than 100 µM; in the assay with HT29 colon, more than 100 µM; in the assay with UACC-257 melanoma, more than 100 µM; in the assay with SNB-75 CNS, 91.8 µM; in the assay on CAKI-1 renal, more than 100 µM; in the assay on A549 NSCLC, more than 100 µM. For the same molecule, the TGI with EKVX NSCLC, in the assay on NCI-H460 lung and in the assay on SF-295 CNS was more than 100 µM in each case.

`Cc1ccc(S(=O)(=O)N2CCCSCCN(S(=O)(=O)c3ccc(C)cc3)CCCSCC2)cc1`: the TGI in the assay with COLO 205 colon, with HT29 colon, in the assay with UACC-257 melanoma, in the assay with SNB-75 CNS, with A549 NSCLC and with EKVX NSCLC was more than 100 µM throughout. Further, the TGI in the assay on NCI-H460 lung and in the assay on SF-295 CNS was more than 100 µM in each case.

On to `CCOP(C)(=O)/C(Cc1ccc(OC)c(OC)c1)=N\O` (stereo unspecified), for which the TGI with COLO 205 colon, in the assay on HT29 colon, with SNB-75 CNS, with CAKI-1 renal, in the assay with A549 NSCLC and with MALME-3M melanoma was more than 100 µM in each case. Moreover, the TGI in the assay with EKVX NSCLC, with NCI-H460 lung and with SF-295 CNS was more than 100 µM each time.

For `CCCCN1C(=O)CS/C1=N/Nc1nc2c([nH]1)c(=O)n(C)c(=O)n2C`, the TGI in the assay on COLO 205 colon, with HT29 colon, in the assay on UACC-257 melanoma, with CAKI-1 renal, in the assay with A549 NSCLC and in the assay with MALME-3M melanoma was more than 100 µM throughout. Moreover, the TGI with EKVX NSCLC was more than 100 µM; in the assay with NCI-H460 lung it was more than 100 µM; with SF-295 CNS it was 53.1 µM.

For the molecule `CC(C)(SCc1ccccc1)C(N)C(=O)O` (stereo unspecified), the TGI in the assay with HT29 colon, in the assay with UACC-257 melanoma, in the assay on SNB-75 CNS, with CAKI-1 renal, in the assay with A549 NSCLC and in the assay on MALME-3M melanoma was more than 100 µM each time. Also, the TGI in the assay with EKVX NSCLC, in the assay with NCI-H460 lung and in the assay on SF-295 CNS was more than 100 µM in each case.
